Data taken from publication PMC4596572, “Ligand Discovery for the Alanine-Serine-Cysteine Transporter (ASCT2, SLC1A5) from Homology Modeling and Virtual Screening” (PLoS Computational Biology, 2015).
Where “and” joins values, the source holds several entries; their conditions need not be identical. Equal entries are not always repeated.

Tests used:
rat ASCT2 = molecular target: T1, rat ASCT2 (Rattus norvegicus, UniProt D3ZJ25); experiment: Whole-cell patch-clamp recording of ASCT2-associated anion current in transfected HEK293 cells; assay type: cell-based; conditions: for Km: apparent Km for the active compounds from anion current dose response, called Ki in text for the inhibitors L-DOPS and γ-FBP; for Imax, maximum currents relative to 1 mM alanine: whole-cell anion current, membrane potential 0 mV, internal 130 mM NaSCN and 10 mM alanine, negative = outward current (inhibitor); for Anion current response / ligand character: whole-cell current, result in words; for Anion current activity: at the maximum concentration tested, 500 μM
T1 construct: The coding region of the cDNA was subcloned into the EcoRI site of the pBK-CMV vector; expressed in transfected cells; host or cells: HEK293 (human embryonic kidney), transient transfection, pBK-CMV vector
T1 sequence (D3ZJ25 1-555): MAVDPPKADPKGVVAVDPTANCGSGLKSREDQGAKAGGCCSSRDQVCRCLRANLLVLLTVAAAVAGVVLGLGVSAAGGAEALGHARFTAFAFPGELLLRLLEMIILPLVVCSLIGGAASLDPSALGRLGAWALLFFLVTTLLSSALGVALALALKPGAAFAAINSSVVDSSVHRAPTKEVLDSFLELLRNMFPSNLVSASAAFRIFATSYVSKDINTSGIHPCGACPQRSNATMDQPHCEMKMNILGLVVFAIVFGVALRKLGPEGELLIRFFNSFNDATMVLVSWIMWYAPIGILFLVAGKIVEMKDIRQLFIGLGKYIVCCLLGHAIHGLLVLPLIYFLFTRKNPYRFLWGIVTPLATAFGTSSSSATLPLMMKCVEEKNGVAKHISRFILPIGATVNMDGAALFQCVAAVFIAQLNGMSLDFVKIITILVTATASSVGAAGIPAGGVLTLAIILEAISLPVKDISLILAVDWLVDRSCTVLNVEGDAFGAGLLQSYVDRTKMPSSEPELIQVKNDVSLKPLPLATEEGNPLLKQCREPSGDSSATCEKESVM
Description: (§1) We used transporter-mediated anion current as a measure of transport/inhibition activity […] We have previously shown that anion current is a measure of transport activity, due to the kinetic coupling of transport and anion flux, and this fact is also well established for the homologous glutamate transporters, which have a much more rigorously determined pharmacology. Anion current is activated when the transporter visits certain states in the transport cycle, such as the fully Na^+/substrate occupied state (substrate-induced anion conductance), or the Na^+-bound state (leak conductance). Thus, transported substrates induce anion current and non-transported inhibitors block the leak anion current. […] Functional characterization by patch clamping is a powerful approach when combined with virtual screening that prioritizes molecules from large libraries, but precludes screening of large amounts of compounds due to its labor-intensive nature.
cDNA coding for rat ASCT2 was kindly provided by S. Bröer. The coding region of the cDNA was subcloned into the EcoRI site of the pBK-CMV vector (Stratagene). The cDNA construct was used to transiently transfect human embryonic kidney cells (HEK293, ATCC No. CGL 1573) with leptrime reagent (Polyplus, Ilkrich, France). Transfection was performed as detailed in the supplier’s instructions. Electrophysiological recordings were performed 24–48 h after transfection.
ASCT2-associated whole-cell currents were recorded with an Adams & List EPC7 amplifier (HEKA, Lambrecht, Germany) using voltage-clamp conditions. Open-tip electrode resistances were 2–3 MΩ and the series resistance (R S) was 5–8 MΩ. R S was not compensated in the recordings, as compensation had no effect on the magnitude of the observed currents. The extracellular bath solution contained (in mM): 140 NaMES, 2 MgGluconate2, 2 CaGluconate2, and 10 HEPES (MES = methanesulfonic acid, pH 7.4 / NaOH). The pipette solution contained (in mM): 130 NaSCN, 2 MgCl2, 10 EGTA, 10 HEPES, and 10 L-alanine/cysteine (pH 7.3 / NaOH). Using this intracellular solution, the transporters operate in the Na^+/alanine exchange mode. Here, external alanine is exchanged with internal alanine in the absence of net transport. The exchange mode is associated with the activation of an uncoupled anion current, which was used as an indirect measure of transport activity. The currents were low pass filtered at 3 kHz (EPC7 built-in filter) and digitized with a digitizer board (Digidata 1200, Axon Instruments, Foster City, CA, USA) at a sampling rate of 10–50 kHz (controlled by software, Axon PClamp7). All experiments were performed at room temperature. Rapid solution exchange was essentially performed as described previously. Briefly, substrates and inhibitors were applied to the ASCT2-expressing HEK293 cells with a quartz tube (350 μm tube diameter) positioned at a distance of ≈0.5 mm to the cell. The linear flow rate of the solutions emerging from the opening of the tube was approximately 5–10 cm/s.

[1] = molecular target: T2, ASCT2 mediated glutamine uptake in C8161 melanoma cells (Homo sapiens, UniProt Q15758); design: method as in PMID 24531984; conditions: cited from earlier work
T2 construct: C8161 cells (1 × 10^5/well) were incubated with [^3H]-L-glutamine; endogenous in cells; host or cells: C8161 human melanoma cell line
T2 sequence (Q15758 1-541): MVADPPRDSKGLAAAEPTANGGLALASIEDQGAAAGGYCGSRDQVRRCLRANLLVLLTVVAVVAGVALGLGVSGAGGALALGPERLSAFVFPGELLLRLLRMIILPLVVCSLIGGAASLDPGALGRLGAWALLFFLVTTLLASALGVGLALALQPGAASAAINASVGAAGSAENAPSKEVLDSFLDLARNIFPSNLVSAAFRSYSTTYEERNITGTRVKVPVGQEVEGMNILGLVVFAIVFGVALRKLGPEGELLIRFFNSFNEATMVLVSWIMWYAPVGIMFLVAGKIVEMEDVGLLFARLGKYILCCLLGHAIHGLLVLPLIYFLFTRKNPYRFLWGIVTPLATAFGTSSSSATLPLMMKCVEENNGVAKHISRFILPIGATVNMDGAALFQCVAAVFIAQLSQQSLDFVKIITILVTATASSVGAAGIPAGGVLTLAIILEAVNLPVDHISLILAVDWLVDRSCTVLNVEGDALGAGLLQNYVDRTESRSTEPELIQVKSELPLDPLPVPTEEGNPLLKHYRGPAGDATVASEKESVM

ASCT2 = molecular target: T3, ASCT2 (Rattus norvegicus, UniProt D3ZJ25); experiment: Voltage-jump exchange-mediated transient transport current in ASCT2-expressing cells; assay type: cell-based; conditions: benzylserine 5 mM (S2 Fig)
T3 construct: expressed in transfected cells
T3 sequence (D3ZJ25 1-555): T1 sequence (D3ZJ25 1-555)
Description: as §1
Supplementary file pcbi.1004477.s002.pdf: S2 Fig Exchange current is mediated by a transported substrate, but not by a non-transported inhibitor. Voltage jumps induce transport-mediated exchange current (due to voltage-dependent re-equilibration of the translocation equilibrium) in the presence of the transported substrate alanine (1 mM, black trace), but not in the presence of the non-transported inhibitor benzylserine (5 mM, red trace). […]

Solubility in water = assay type: physicochemical; conditions: required 5% DMSO at concentrations higher than 1 mM

Row | SMILES | Km (rat ASCT2) | Imax, maximum currents relative to 1 mM alanine (rat ASCT2) | Anion current response / ligand character (rat ASCT2) | further results
1 | CC(C)(N)C(=O)O [AIB] |  |  |  | Anion current response (rat ASCT2; at concentrations up to 5 mM): did not elicit any significant response
2 | N[C@H](C(=O)O)[C@H](O)c1ccc(O)c(O)c1 [L-DOPS, reference compound] | 1950 ± 900 µM | -0.03 ± 0.01 | weak inhibitor | Ki (rat ASCT2; apparent affinity, inhibition of leak anion conductance, read-out: Ki): ~2 mM; Inhibition of alanine-induced responses (rat ASCT2; at concentrations up to 5 mM): unable to significantly inhibit alanine-induced responses
3 | O=C(O)C1CC(OCc2ccccc2)CN1 (stereo not shown) [4-hydroxyproline-benzylether] |  |  | not significantly different from zero | 
4 | O=C(O)[C@@H]1CCCN1 [proline, reference compound] |  |  | not an ASCT2 ligand | 
5 | N[C@@H](COCc1ccccc1)C(=O)O [benzylserine] |  |  |  | IC50 [1]: 5.3 mM; Exchange-mediated transient transport currents upon voltage jumps (ASCT2): unable to elicit exchange-mediated transient transport currents
6 | O=C(O)[C@H](Cc1c[nH]c2ccccc12)NCCc1ccccc1 [N-(2-phenylethyl)tryptophan] |  |  |  | Solubility in water (Solubility in water): poorly soluble in water; Anion current activity (rat ASCT2): inactive
7 | O=C(O)C1NCCS1 (stereo not shown) [thiazolidine-2-carboxylate] |  |  |  | Anion current response (rat ASCT2; at concentrations up to 5 mM): did not elicit any significant response
8 | Cc1ccc2[nH]c(C(=O)O)c(CN(C)Cc3ncc[nH]3)c2c1 [3-{[(1H-imidazol-2-ylmethyl)(methyl)amino]methyl}-5-methyl-1H-indole-2-carboxylic acid] |  |  |  | Solubility in water (Solubility in water): poorly soluble in water; Anion current activity (rat ASCT2): inactive
9 | CC(C)(S)[C@@H](N)C(=O)O [Penicillamine, reference compound] | 1370 ± 680 µM | 0.68 ± 0.08 | activated inwardly-directed anion currents | 

Now from value to compound, other results behind:

Row | Km (rat ASCT2) | Imax, maximum currents relative to 1 mM alanine (rat ASCT2) | SMILES | Anion current response / ligand character (rat ASCT2) | further results
10 | 410 ± 20 µM | 1 | C[C@H](N)C(=O)O [Alanine] |  | 
11 | 5100 ± 1500 µM | 0.45 ± 0.03 | N[C@H](C(=O)O)[C@@H]1CC(Cl)=NO1 [Acivicin, reference compound] |  | 
12 | 19 ± 10 µM | 1.39 and 1.39 ± 0.1 | O=C(O)[C@H]1NCC[C@H]1O [cis-3-hydroxyproline] | activated inwardly-directed anion currents | 
